{"source": "patent US20110160206A1", "about": "“TRI-SUBSTITUTED PYRIMIDINE COMPOUNDS AND THEIR USE AS PDE10 INHIBITORS” (priority 2009, published 2011)", "note": "pIC50: −log10 of the molar value. Counter-ions that a name gives are not always drawn.", "data": [{"target": "T1, PDE10 (PDE10A) (Bos taurus, UniProt A0A3Q1MHJ4)", "T1 construct": "isolated and prepared from bovine corpus striatum; from tissue; host or cells: bovine corpus striatum", "T1 sequence (A0A3Q1MHJ4 1-1068)": "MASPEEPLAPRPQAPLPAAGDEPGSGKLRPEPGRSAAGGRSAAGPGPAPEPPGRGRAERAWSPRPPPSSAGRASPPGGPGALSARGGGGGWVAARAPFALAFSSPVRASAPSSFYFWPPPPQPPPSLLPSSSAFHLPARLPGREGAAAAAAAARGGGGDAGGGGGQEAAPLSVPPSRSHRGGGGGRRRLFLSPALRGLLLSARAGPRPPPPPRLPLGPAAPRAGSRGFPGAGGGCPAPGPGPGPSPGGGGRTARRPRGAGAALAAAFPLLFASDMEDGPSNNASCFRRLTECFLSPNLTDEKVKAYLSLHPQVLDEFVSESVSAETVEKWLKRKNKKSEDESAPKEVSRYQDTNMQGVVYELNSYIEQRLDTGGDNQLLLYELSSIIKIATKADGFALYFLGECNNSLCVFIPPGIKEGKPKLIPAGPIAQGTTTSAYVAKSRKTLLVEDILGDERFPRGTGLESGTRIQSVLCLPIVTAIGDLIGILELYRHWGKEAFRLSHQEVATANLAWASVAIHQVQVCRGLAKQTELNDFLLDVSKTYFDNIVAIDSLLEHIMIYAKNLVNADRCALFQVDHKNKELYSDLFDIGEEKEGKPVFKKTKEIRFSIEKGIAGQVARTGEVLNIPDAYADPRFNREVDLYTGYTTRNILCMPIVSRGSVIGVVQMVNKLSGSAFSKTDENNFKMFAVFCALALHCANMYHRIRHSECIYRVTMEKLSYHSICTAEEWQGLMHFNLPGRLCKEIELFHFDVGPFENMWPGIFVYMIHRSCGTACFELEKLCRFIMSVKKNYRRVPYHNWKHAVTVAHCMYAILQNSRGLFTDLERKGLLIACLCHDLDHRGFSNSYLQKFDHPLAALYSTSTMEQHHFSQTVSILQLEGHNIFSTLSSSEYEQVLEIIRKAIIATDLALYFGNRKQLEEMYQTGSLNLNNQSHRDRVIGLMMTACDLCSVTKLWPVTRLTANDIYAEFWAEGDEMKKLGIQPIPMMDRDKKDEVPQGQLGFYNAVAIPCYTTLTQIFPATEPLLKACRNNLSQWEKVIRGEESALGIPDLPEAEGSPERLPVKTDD", "assay": "Measurement of PDE10 inhibitory activity (radiolabeled nucleotide PDE assay)", "type": "biochemical", "details": "PDE10A from bovine corpus striatum; [3H]cAMP 7 nM final; room temperature 90 min", "description": "(1) The enzyme PDE10 (PDE10A) was isolated and prepared from bovine corpus striatum, according to the methods described in references Fujishige et al., Eur. J. Biochem., vol. […] The enzyme solution obtained was used for a PDE assay.\nSpecifically, the measurements of the inhibitory activities were carried out in the following method.\n(Method) The test compounds were dissolved in dimethyl sulfoxide (DMSO). […] The final concentration of cAMP in the reaction mixtures was 7 nM. The reaction mixtures were incubated at room temperature for 90 min under dark conditions. After incubation, the reaction was stopped by adding 100 μL of methanol and resultant solutions were applied to filter plate containing Dowex (1×8 200-400) and centrifuged. 50 μL of the eluate together with wash eluate with additional 100 μL methanol was collected in another plate and the radioactivity was measured with 250 μL of scintillant.\n(2) The compounds in the Examples below were tested for PDE inhibition using the Method described above.", "values": [{"smiles": "CO[C@H]1CC[C@H](Nc2cc(N3CCCC3)nc(/C=C/c3nc4ccc(F)cc4nc3C)n2)CC1", "note": "[Example 1.048, 2-[(E)-2-(6-fluoro-3-methylquinoxalin-2-yl)vinyl]-N-(trans-4-methoxycyclohexyl)-6-pyrrolidin-1-ylpyrimidin-4-amine dihydrochloride]", "pIC50": 10.40}, {"smiles": "CN(C)c1nc2ccccc2nc1/C=C/c1nc(N2CCCC2)cc(N(C2CCOCC2)C2CC2)n1", "note": "[Example 1.099, 3-((E)-2-{4-[cyclopropyl(tetrahydro-2H-pyran-4-yl)amino]-6-pyrrolidin-1-ylpyrimidin-2-yl}vinyl)-N,N-dimethylquinoxalin-2-amine]", "pIC50": 10.00}, {"smiles": "Cc1cc2nc(C)c(/C=C/c3nc(N[C@@H]4CCOC4)cc(N4CCCC4)n3)nc2cc1C", "note": "[Example 1.041, 6-pyrrolidin-1-yl-N-[(3R)-tetrahydrofuran-3-yl]-2-[(E)-2-(3,6,7-trimethylquinoxalin-2-yl)vinyl]pyrimidin-4-amine]", "pIC50": 9.18}, {"smiles": "Cc1nc2ccccc2nc1/C=C/c1nc(N[C@H]2CC[C@H](CO)CC2)cc(N2CCCC2)n1", "note": "[Example 1.024, [trans-4-({2-[(E)-2-(3-methylquinoxalin-2-yl)vinyl]-6-pyrrolidin-1-ylpyrimidin-4-yl}amino)cyclohexyl]methanol]", "pIC50": 10.41}, {"smiles": "CO[C@H]1CC[C@H](Nc2cc(N3CCCC3)nc(CCc3nc4cc(C(F)(F)F)ccc4nc3C)n2)CC1", "note": "[Example 4.003, N-(trans-4-methoxycyclohexyl)-2-{2-[3-methyl-7-(trifluoromethyl)quinoxalin-2-yl]ethyl}-6-pyrrolidin-1-ylpyrimidin-4-amine]", "pIC50": 10.51}, {"smiles": "COCCNc1cc(N2CCCC2)nc(/C=C/c2nc3ccccc3nc2N(C)C)n1", "note": "[Example 1.003, 3-((E)-2-{4-[(2-methoxyethyl)amino]-6-pyrrolidin-1-ylpyrimidin-2-yl}vinyl)-N,N-dimethylquinoxalin-2-amine]", "pIC50": 9.22}, {"smiles": "Cc1cc2ccccc2nc1/C=C/c1nc(N[C@@H]2CCS(=O)(=O)C2)cc(N2CCCC2)n1", "note": "[Example 1.093, N-[(3R)-1,1-dioxidotetrahydro-3-thienyl]-2-[(E)-2-(3-methylquinolin-2-yl)vinyl]-6-pyrrolidin-1-ylpyrimidin-4-amine]", "pIC50": 9.52}, {"smiles": "CN(C)c1nc2ccccc2nc1/C=C/c1nc(N[C@@H]2CCS(=O)(=O)C2)cc(N2CCCC2)n1", "note": "[Example 1.007, 3-[(E)-2-(4-{[(3R)-1,1-dioxidotetrahydro-3-thienyl]amino}-6-pyrrolidin-1-ylpyrimidin-2-yl)vinyl]-N,N-dimethylquinoxalin-2-amine]", "pIC50": 10.05}, {"smiles": "Cc1cc2ccccc2nc1/C=C/c1nc(NC2CCOCC2)cc(N2CCCC2)n1", "note": "[Example 1.090, 2-[(E)-2-(3-methylquinolin-2-yl)vinyl]-6-pyrrolidin-1-yl-N-(tetrahydro-2H-pyran-4-yl)pyrimidin-4-amine]", "pIC50": 9.44}, {"smiles": "Cc1ccc2nc(C)c(/C=C/c3nc(N[C@H]4CC[C@](C)(O)CC4)cc(N4CCCC4)n3)nc2c1", "note": "[Example 1.064, trans-4-({2-[(E)-2-(3,7-dimethylquinoxalin-2-yl)vinyl]-6-pyrrolidin-1-ylpyrimidin-4-yl}amino)-1-methylcyclohexanol]", "pIC50": 10.32}, {"smiles": "COc1ccc2nc(C)c(/C=C/c3nc(NC4CCOCC4)cc(N4CCCC4)n3)nc2c1", "note": "[Example 1.078, 2[(E)-2-(7-methoxy-3-methylquinoxalin-2-yl)vinyl]-6-pyrrolidin-1-yl-N-(tetrahydro-2H-pyran-4-yl)pyrimidin-4-amine dihydrochloride]", "pIC50": 10.33}, {"smiles": "CN(c1cc(N2CCCC2)nc(/C=C/c2nc3ccccc3nc2N(C)C2CC2)n1)C1CCOCC1", "note": "[Example 1.101, N-cyclopropyl-N-methyl-3-((E)-2-{4-[methyl(tetrahydro-2H-pyran-4-yl)amino]-6-pyrrolidin-1-ylpyrimidin-2-yl}vinyl)quinoxalin-2-amine]", "pIC50": 9.34}, {"smiles": "Cc1nc2ccccc2nc1/C=C/c1nc(N[C@H]2CC[C@](C)(O)CC2)cc(N2CCCC2)n1", "note": "[Example 1.020, trans-1-methyl-4-({2-[(E)-2-(3-methylquinoxalin-2-yl)vinyl]-6-pyrrolidin-1-ylpyrimidin-4-yl}amino)cyclohexanol]", "pIC50": 10.14}, {"smiles": "Cc1nc2ccc(F)cc2nc1/C=C/c1nc(NC2CCOCC2)cc(N2CCCC2)n1", "note": "[Example 1.050, 2-[(E)-2-(7-fluoro-3-methylquinoxalin-2-yl)vinyl]-6-pyrrolidin-1-yl-N-(tetrahydro-2H-pyran-4-yl)pyrimidin-4-amine hydrochloride]", "pIC50": 9.85}, {"smiles": "CN(c1nc2ccccc2nc1/C=C/c1nc(NC2CCOCC2)cc(N2CCCC2)n1)C1CC1", "note": "[Example 1.010, N-cyclopropyl-N-methyl-3-{(E)-2-[4-pyrrolidin-1-yl-6-(tetrahydro-2H-pyran-4-ylamino)pyrimidin-2-yl]vinyl}quinoxalin-2-amine]", "pIC50": 9.32}, {"smiles": "Cc1nc2ccc(OC(F)(F)F)cc2nc1/C=C/c1nc(N[C@H]2CC[C@H](O)CC2)cc(N2CCCC2)n1", "note": "[Example 1.084, trans-4-[(2-{(E)-2-[3-methyl-7-(trifluoromethoxy)quinoxalin-2-yl]vinyl}-6-pyrrolidin-1-ylpyrimidin-4-yl)amino]cyclohexanol]", "pIC50": 10.96}, {"smiles": "CN(C)c1nc2ccccc2nc1/C=C/c1nc(NC2CCOCC2)cc(N2CCCC2)n1", "note": "[Example 1.001, N,N-dimethyl-3-{(E)-2-[4-pyrrolidin-1-yl-6-(tetrahydro-2H-pyran-4-ylamino)pyrimidin-2-yl]vinyl}quinoxalin-2-amine dihydrochloride]", "pIC50": 10.00}, {"smiles": "Cc1nc2ccccc2nc1OCc1cc(NC2CCOCC2)nc(N2CCCC2)n1", "note": "[Example 6.001, 6-[(3-methylquinoxalin-2-yl)oxy]methyl-2-pyrrolidin-1-yl-N-(tetrahydro-2H-pyran-4-yl)pyrimidin-4-amine hydrochloride]", "pIC50": 9.66}, {"smiles": "CN(C)c1nc2ccccc2nc1/C=C/c1nc(N2CCCC2)cc(N2CCOCC2)n1", "note": "[Example 1.095, N,N-dimethyl-3-[(E)-2-(4-morpholin-4-yl-6-pyrrolidin-1-ylpyrimidin-2-yl)vinyl]quinoxalin-2-amine]", "pIC50": 9.10}, {"smiles": "Oc1nc2ccccc2nc1/C=C/c1nc(NC2CCOCC2)cc(N2CCCC2)n1", "note": "[Example 1.094, 3-{(E)-2-[4-pyrrolidin-1-yl-6-(tetrahydro-2H-pyran-4-ylamino)pyrimidin-2-yl]vinyl}quinoxalin-2-ol hydrochloride]", "pIC50": 9.77}, {"smiles": "Cc1nc2ccccc2nc1OCc1nc(N2CCCC2)cc(N(C)C2CCOCC2)n1", "note": "[Example 5.002, N-methyl-2-{[(3-methylquinoxalin-2-yl)oxy]methyl}-6-pyrrolidin-1-yl-N-(tetrahydro-2H-pyran-4-yl)pyrimidin-4-amine hydrochloride]", "pIC50": 9.21}, {"smiles": "Cc1nc2ccc(C(F)(F)F)cc2nc1/C=C/c1nc(N[C@@H]2CCS(=O)(=O)C2)cc(N2CCCC2)n1", "note": "[Example 1.074, N-[(3R)-1,1-dioxidotetrahydro-3-thienyl]-2-{(E)-2-[3-methyl-7-(trifluoromethyl)quinoxalin-2-yl]vinyl}-6-pyrrolidin-1-ylpyrimidin-4-amine]", "pIC50": 11.48}]}]}
